Patent US20180303928A1 (priority 2017, published 2018)

Tests used:
Format in all cases: biochemical, influenza A(H7N2) virus
[1] = tested on: NA enzymatic activity of A/chicken/NY/99
NA of the H7N2 viruses = tested on: NA of the H7N2 viruses
[2] = tested on: NA enzymatic activity of A/feline/NY/16

Row | Structure (SMILES) | Sensitivity to NA inhibitors (50% inhibitory concentration (IC50) of the NA enzymatic activity) [1] | Susceptibility of the H7N2 viruses to NA inhibitors (NA of the H7N2 viruses) | Sensitivity to NA inhibitors (50% inhibitory concentration (IC50) of the NA enzymatic activity) [2]
1 | CCOC(=O)C1=C[C@@H](OC(CC)CC)[C@H](NC(C)=O)[C@@H](N)C1 [oseltamivir] | sensitive | susceptible | sensitive
2 | CCC(CC)[C@H](NC(C)=O)[C@@H]1[C@H](O)[C@@H](C(=O)O)C[C@H]1N=C(N)N [peramivir] | – | susceptible | –
3 | CC(=O)N[C@H]1[C@H]([C@H](O)[C@H](O)CO)OC(C(=O)O)=C[C@@H]1N=C(N)N [zanamivir] | sensitive | susceptible | sensitive
4 | [H]/N=C(\N)N[C@H]1C=C(C(=O)O)O[C@@H]([C@H](OC)[C@H](O)CO)[C@@H]1NC(C)=O [laninamivir] | sensitive | susceptible | sensitive
